# US9458181B2, “Cathepsin cysteine protease inhibitors” (Merck Sharp & Dohme Corp., priority 2013, dated 2016)
# Columns and labels:
# human cathepsin F = biological target: T1, human cathepsin F (Homo sapiens, UniProt Q9UBX1); assay: Cathepsin F assay (hCat F); format: biochemical; conditions: human cathepsin F 10 nM, Z-Phe-Arg-AMC 8 μM, pH 5.5, 15 min preincubation; read-out: hCat F IP
# T1 sequence (Q9UBX1 271-484): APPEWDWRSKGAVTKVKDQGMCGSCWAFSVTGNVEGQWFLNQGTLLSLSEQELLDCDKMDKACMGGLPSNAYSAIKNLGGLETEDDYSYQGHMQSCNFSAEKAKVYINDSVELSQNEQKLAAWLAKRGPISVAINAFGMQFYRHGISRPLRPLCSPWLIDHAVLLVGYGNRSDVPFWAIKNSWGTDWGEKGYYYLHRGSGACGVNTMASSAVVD
# Method in brief: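 Fluorogenic read-out: cleavage of Z-Phe-Arg-AMC (8 μM in added buffer) was followed at Ex 360/Em 460 nm for 20 min, with dose-response fitting of percent inhibition. Before substrate addition, 10 nM human enzyme was incubated 15 min at room temperature with compounds (DMSO stocks 500–0.025 μM) in pH 5.5 MES/EDTA/DTT buffer containing 10% DMSO.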
# human cathepsin K = human cathepsin K (UniProt P43236); assay: Cathepsin K Assay (hrbCat K); format: biochemical; conditions: human cathepsin K 0.4 nM, Z-Leu-Arg-AMC 8 μM, pH 5.5, 15 min preincubation; read-out: hrbCat K IP
# Method in brief: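 Human cathepsin K (0.4 nM) in pH 5.5 MES buffer with EDTA, DTT and 10% DMSO was preincubated 15 min at room temperature with compound from a ⅓ dilution series (500-0.025 μM DMSO stocks). Z-Leu-Arg-AMC (8 μM) was then added, and AMC release was followed fluorometrically (Ex 360/Em 460 nm) for 30 min; inhibition was fitted to a dose-response model.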
Compound,IC50 (human cathepsin F) [nM],IC50 (human cathepsin K) [nM]
"N#CC1(NC(=O)[C@@H]2CCCC[C@H]2c2oc(-c3ccc(F)cc3)nc2-c2ccc(N3CCS(=O)(=O)CC3)c(Br)c2)CC1 [Example 102, (1R,2R)-2-(4-(3-bromo-4-(1,1-dioxidothiomorpholino)phenyl)-2-(4-fluorophenyl)oxazol-5-yl)-N-(1-cyanocyclopropyl) cyclohexanecarboxamide]",416,54.5
"C[C@@H](C#N)NC(=O)[C@@H]1CC(F)(F)CC[C@H]1c1oc(C(F)(F)C(F)(F)F)nc1-c1ccc(C(=O)N2CCOCC2)cc1 [Example 137, (1R,2R)-N-((S)-1-cyanoethyl)-5,5-difluoro-2-(4-(4-(morpholine-4-carbonyl)phenyl)-2-(perfluoroethyl)oxazol-5-yl)cyclohexanecarboxamide]",295,0.39
"N#CC1(NC(=O)[C@@H]2C[C@@H](F)CC[C@H]2c2oc(-c3ccc(F)cc3F)nc2-c2ccc(N3CCS(=O)(=O)CC3)cc2)CC1 [Example 41, (1R,2R,5S)-N-(1-cyanocyclopropyl)-2-(2-(2,4-difluorophenyl)-4-(4-(1,1-dioxidothiomorpholino)phenyl)oxazol-5-yl)-5-fluorocyclohexane-carboxamide]",2190,1.41
"N#CC1(NC(=O)[C@@H]2CCCC[C@H]2c2oc(-c3cncc(C(F)(F)F)c3)nc2-c2ccc(N3CCS(=O)(=O)CC3)cc2)CC1 [Example 88, (1R,2R)-N-(1-cyanocyclopropyl)-2-(4-(4-(1,1-dioxidothiomorpholino)phenyl)-2-(5-(trifluoromethyl)pyridin-3-yl)oxazol-5-yl)cyclohexanecarboxamide]",2380,2.21
"CC(C)C(C#N)NC(=O)[C@@H]1CCCC[C@H]1c1oc(-c2ccc(F)cc2)nc1-c1ccc(N2CCS(=O)(=O)CC2)cc1 (single isomer, unassigned) [Example 124, (1R,2R)-N-((R or S)-1-cyano-2-methylpropyl)-2-(4-(4-(1,1-dioxidothiomorpholino)phenyl)-2-(4-fluorophenyl)oxazol-5-yl)cyclohexanecarboxamide]",≥ 10000,1080
"N#CC(CC(F)(F)F)NC(=O)[C@@H]1CCCC[C@H]1c1oc(-c2ccc(F)cc2)nc1-c1ccc(N2CCS(=O)(=O)CC2)cc1 (single isomer, unassigned) [Example 131, (1R,2R)-N-((R or S)-1-cyano-3,3,3-trifluoropropyl)-2-(4-(4-(1,1-dioxidothiomorpholino)phenyl)-2-(4-fluorophenyl)oxazol-5-yl)cyclohexanecarboxamide]",14,0.65
"N#CC1(NC(=O)[C@@H]2C[C@@H](F)CC[C@H]2c2oc(C(F)(F)C(F)(F)F)nc2-c2ccc(N3CCS(=O)(=O)CC3)cc2)CC1 [Example 42, (1R,2R,5S)-N-(1-cyanocyclopropyl)-2-(4-(4-(1,1-dioxidothiomorpholino)phenyl)-2-(perfluoroethyl)oxazol-5-yl)-5-fluorocyclohexane-carboxamide]",1860,2.41
"N#C[C@H](NC(=O)[C@@H]1CCCC[C@H]1c1oc(-c2ccc(F)cc2)nc1-c1ccc(N2CCS(=O)(=O)CC2)cc1)C1CCOCC1 [Example 127, (1R,2R)-N-((R)-cyano(tetrahydro-2H-pyran-4-yl)methyl)-2-(4-(4-(1,1-dioxidothiomorpholino)phenyl)-2-(4-fluorophenyl)oxazol-5-yl)cyclohexanecarboxamide]",≥ 10000,48.5

# Second part, the molecule after the results:
IC50 (human cathepsin F) [nM],IC50 (human cathepsin K) [nM],Compound
803,0.92,"N#CC1(NC(=O)[C@@H]2CCCC[C@H]2c2oc(-c3cncc(N4CCS(=O)(=O)CC4)c3)nc2-c2ccc(N3CCS(=O)(=O)CC3)cc2)CC1 [Example 92, (1R,2R)-N-(1-cyanocyclopropyl)-2-(4-(4-(1,1-dioxidothiomorpholino)phenyl)-2-(5-(1,1-dioxidothiomorpholino)pyridin-3-yl)oxazol-5-yl)cyclohexanecarboxamide]"
380,1.2,"N#CC1(NC(=O)[C@@H]2CCCC[C@H]2c2oc(-c3ccc(Cl)cc3F)nc2-c2ccc(N3CCS(=O)(=O)CC3)cc2)CC1 [Example 94, (1R,2R)-2-(2-(4-chloro-2-fluorophenyl)-4-(4-(1,1-dioxidothiomorpholino)phenyl)oxazol-5-yl)-N-(1-cyanocyclopropyl) cyclohexanecarboxamide]"
507,0.56,"N#CC1(NC(=O)[C@@H]2CCCC[C@H]2c2oc(-c3cccc(Cl)c3)nc2-c2ccc(N3CCS(=O)(=O)CC3)cc2)CC1 [Example 5, (1R,2R)-2-(2-(3-Chlorophenyl)-4-(4-thiomorpholino-1,1-dioxide-phenyl)oxazol-5-yl)-N-(1-cyanocyclopropyl)cyclohexanecarboxamide]"
259,0.68,"N#CC1(NC(=O)[C@@H]2CC(Cl)(Cl)CC[C@H]2c2oc(C(F)(F)C(F)(F)F)nc2-c2ccc(C(=O)N3CCOCC3)cc2)CC1 [Example 154, (1R,2R)-5,5-dichloro-N-(1-cyanocyclopropyl)-2-(4-(4-(morpholine-4-carbonyl)phenyl)-2-(perfluoroethyl)oxazol-5-yl)cyclohexanecarboxamide]"
2230,1.89,"CC1(c2nc(-c3ccc(N4CCS(=O)(=O)CC4)cc3)c([C@@H]3CCCC[C@H]3C(=O)NC3(C#N)CC3)o2)CCOCC1 [Example 99, (1R,2R)-N-(1-cyanocyclopropyl)-2-(4-(4-(1,1-dioxidothiomorpholino)phenyl)-2-(4-methyltetrahydro-2H-pyran-4-yl)oxazol-5-yl)cyclohexanecarboxamide]"
6160,5.09,"Cc1nc(-c2ccc(C(=O)N3CCOCC3)cc2)c([C@@H]2CCCC[C@H]2C(=O)NC2(C#N)CC2)o1 [Example 22, (1R,2R)-N-(1-cyanocyclopropyl)-2-(2-methyl-4-(4-(morpholine-4-carbonyl)phenyl)oxazol-5-yl)cyclohexanecarboxamide]"
511,1.36,"N#CC1(NC(=O)[C@@H]2CCCC[C@H]2c2oc(-c3ccc(OC(F)(F)F)cc3)nc2-c2ccc(N3CCS(=O)(=O)CC3)cc2)CC1 [Example 61, (1R,2R)-N-(1-cyanocyclopropyl)-2-(4-(4-(1,1-dioxidothiomorpholino)phenyl)-2-(4-(trifluoromethoxy)phenyl)oxazol-5-yl)cyclohexanecarboxamide]"
681,0.69,"CC(C)(C)c1nc(-c2ccc(N3CCS(=O)(=O)CC3)cc2)c([C@@H]2CCCC[C@H]2C(=O)NC2(C#N)CC2)o1 [Example 11, (1R,2R)-2-(2-(tert-butyl)-4-(4-(1,1-dioxidothiomorpholino)phenyl)oxazol-5-yl)-N-(1-cyanocyclopropyl) cyclohexanecarboxamide]"
5140,2.66,"Cc1nccc(-c2nc(-c3ccc(N4CCS(=O)(=O)CC4)cc3)c([C@@H]3CCCC[C@H]3C(=O)NC3(C#N)CC3)o2)n1 [Example 82, (1R,2R)-N-(1-cyanocyclopropyl)-2-(4-(4-(1,1-dioxidothiomorpholino)phenyl)-2-(2-methylpyrimidin-4-yl)oxazol-5-yl)cyclohexanecarboxamide]"
511,1.59,"COc1cccc(-c2nc(-c3ccc(N4CCS(=O)(=O)CC4)cc3)c([C@@H]3CCCC[C@H]3C(=O)NC3(C#N)CC3)o2)c1 [Example 71, (1R,2R)-N-(1-cyanocyclopropyl)-2-(4-(4-(1,1-dioxidothiomorpholino)phenyl)-2-(3-methoxyphenyl)oxazol-5-yl)cyclohexanecarboxamide]"
